The IC50 is the concentration at which inhibition is half-maximal. The low end stands for inhibition by little substance, the high end for a need for much substance.

For this assay, the target named is MAPK14 (UniProt Q16539). The assay can be described thus: Inhibition of MAPK14 Kinase Activity.
MAPK14, sequence (Q16539 whole entry, looked up): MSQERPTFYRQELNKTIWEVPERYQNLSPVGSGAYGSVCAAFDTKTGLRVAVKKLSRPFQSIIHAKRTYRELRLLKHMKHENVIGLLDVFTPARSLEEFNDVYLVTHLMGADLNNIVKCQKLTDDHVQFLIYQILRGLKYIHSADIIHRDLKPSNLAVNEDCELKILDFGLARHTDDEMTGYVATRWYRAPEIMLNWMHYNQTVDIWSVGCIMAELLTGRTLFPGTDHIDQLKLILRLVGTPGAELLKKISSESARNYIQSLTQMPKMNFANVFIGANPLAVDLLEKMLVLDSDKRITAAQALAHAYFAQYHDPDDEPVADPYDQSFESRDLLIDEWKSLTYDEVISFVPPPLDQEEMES
`Cc1cc(F)ccc1-c1cccc(N(Cc2cccc(F)c2)C(N)=O)n1`: the half-inhibitory concentration (IC50) worked out at 1250 nM.
Consider `COc1ccccc1-c1cccc(N(Cc2ccccc2Cl)C(N)=O)n1`, for which the IC50 was greater than 100000 nM.
With `Cc1ccccc1-c1cccc(N(CCc2ccccc2)C(N)=O)n1` the figure was 978 nM; with `Cc1ccccc1-c1cccc(N(Cc2cccc(F)c2)C(N)=O)n1`, 751 nM; with `NC(=O)N(Cc1c(Cl)cccc1Cl)c1ccc(CO)c(-c2ccccc2Cl)n1`, greater than 100000 nM.
Then `NC(=O)N(Cc1ccccc1F)c1ccc(CO)c(-c2ccccc2Cl)n1`, with 1000 nM; and `COc1ccccc1-c1cccc(N(Cc2ccccc2F)C(N)=O)n1`, with greater than 100000 nM.
Then `Cc1ccccc1-c1cccc(N(Cc2ccccc2F)C(N)=O)n1`, with 888 nM.
For `Cc1cc(F)ccc1-c1nc(N(Cc2c(Cl)cccc2Cl)C(N)=O)ccc1CO`, the half-inhibitory concentration (IC50) worked out at 100000 nM.
Then `COc1ccc(-c2cccc(N(Cc3ccccc3F)C(N)=O)n2)cc1`, with greater than 100000 nM; and `NC(=O)N(Cc1c(Cl)cccc1Cl)c1cccc(-c2c(F)cccc2F)n1`, with 12600 nM.
Then `NC(=O)N(Cc1ccccc1Cl)c1cccc(-c2cccc(F)c2)n1`, with 79400 nM; and `Cc1cc(F)ccc1-c1cccc(N(Cc2c(Cl)cccc2Cl)C(N)=O)n1`, with 2150 nM; and `NC(=O)N(Cc1ccccc1Cl)c1cccc(-c2ccc(Cl)cc2)n1`, with greater than 100000 nM.
With `NC(=O)N(Cc1ccccc1)c1cccc(-c2ccccc2Cl)n1` the figure was 2800 nM; with `NC(=O)N(Cc1ccccc1Cl)c1cccc(-c2cc(F)ccc2F)n1`, 35500 nM.
The compound `NC(=O)N(Cc1ccc(Cl)cc1Cl)c1cccc(-c2ccccc2Cl)n1` showed an IC50 of 25100 nM.
With `NC(=O)N(Cc1c(F)cccc1F)c1ccc(CO)c(-c2ccccc2Cl)n1` the figure was greater than 100000 nM; with `NC(=O)N(Cc1ccccc1Cl)c1cccc(-c2ccccc2Cl)n1`, 900 nM; with `Cc1cc(C)cc(-c2cccc(N(Cc3ccccc3Cl)C(N)=O)n2)c1`, greater than 100000 nM.
With `Cc1cc(F)ccc1-c1cccc(N(Cc2ccccc2Cl)C(N)=O)n1` the figure was greater than 100000 nM; with `NC(=O)N(Cc1c(F)cccc1F)c1ccc(CO)c(-c2ccc(F)cc2F)n1`, 1580 nM.
Compound `Cc1ccccc1-c1cccc(N(Cc2c(Cl)cccc2Cl)C(N)=O)n1` yielded a concentration for half-maximal inhibition (IC50) of 8910 nM.
Then `NC(=O)N(Cc1cccc(F)c1)c1cccc(-c2ccccc2Cl)n1`, with 1120 nM; and `NC(=O)N(Cc1ccc(F)cc1)c1cccc(-c2ccccc2Cl)n1`, with 1130 nM; and `NC(=O)N(Cc1ccc(Cl)cc1Cl)c1cccc(-c2ccc(Cl)cc2)n1`, with 100000 nM.
With `Cc1cc(F)ccc1-c1cccc(N(Cc2c(F)cccc2F)C(N)=O)n1` the figure was 2810 nM.
The compound `Cc1ccccc1-c1cccc(N(Cc2ccccc2Cl)C(N)=O)n1` displayed an IC50 of 873 nM.
With `Cc1ccccc1-c1nc(N(Cc2c(Cl)cccc2Cl)C(N)=O)ccc1CO` the figure was greater than 100000 nM.
With `NC(=O)N(Cc1ccccc1F)c1cccc(-c2ccc(F)cc2)n1` the figure was greater than 100000 nM.
Then `Cc1cc(F)ccc1-c1nc(N(Cc2c(F)cccc2F)C(N)=O)ccc1CO`, with 2200 nM; and `NC(=O)N(Cc1ccccc1F)c1cccc(-c2ccccc2Cl)n1`, with 961 nM.
In turn, `NC(=O)N(Cc1ccccc1F)c1cccc(-c2ccc(Cl)cc2)n1` gave an IC50 greater than 100000 nM.
Then `NC(=O)N(Cc1c(Cl)cccc1Cl)c1cccc(-c2ccccc2Cl)n1`, with greater than 100000 nM.
Then `NC(=O)N(Cc1ccccc1Cl)c1cccc(-c2ccccc2F)n1`, with greater than 100000 nM; and `Cc1ccccc1-c1cccc(N(Cc2c(F)cccc2F)C(N)=O)n1`, with 3160 nM.
With `NC(=O)N(Cc1ccccc1Cl)c1cccc(-c2ccc(F)cc2)n1` the figure was greater than 100000 nM.

Values taken from the Kinase Knowledgebase extract (Sharma et al. 2016).
